A short description of data set [1]: Cytotoxicity against human foreskin fibroblasts after 5 days by colorimetric assay. Type of data set: cell-based. Particulars: human foreskin fibroblasts (HFF cells), read-out: TD50.
Data set [2] concerns Toxoplasma gondii. The data set can be described thus: Antiparasitic activity against Toxoplasma gondii infected in human foreskin fibroblasts assessed as inhibition of attachment compound pretreated at 10 uM for 20 mins before infection after 1 hr by fluorescence assay. It is filed as functional, organism-based.
The subject of data set [3] is Toxoplasma gondii. The data set can be described thus: Antiparasitic activity against Toxoplasma gondii infected in human foreskin fibroblasts assessed as tachyzoite growth inhibition after 5 days by colorimetric assay. Type of data set: functional, organism-based. The note with it: 120 h.
Data set [4] in a line: Therapeutic index, ratio of TD50 for human foreskin fibroblasts to IC50 for Toxoplasma gondii infected in human foreskin fibroblasts. Particulars: read-out: TI.
In data set [5] the test system is Toxoplasma gondii. The data set can be described thus: Antiparasitic activity against Toxoplasma gondii infected in human foreskin fibroblasts assessed as inhibition of invasion compound pretreated at 10 uM for 20 mins before infection after 1 hr by fluorescence assay. Type of data set: functional, organism-based.
Data set [6] concerns Toxoplasma gondii. The data set can be described thus: Antiparasitic activity against Toxoplasma gondii infected in human foreskin fibroblasts assessed as inhibition of replication measured as decrease in the number of tachyzoites in vacuole at 10 uM after 24 hrs by fluorescence assay. Type of data set: functional, organism-based.

The record followed here is ChEMBL document CHEMBL3352341, “Design, synthesis and biological characterization of thiazolidin-4-one derivatives as promising inhibitors of Toxoplasma gondii” (Eur J Med Chem, 2014).

What is called IC50 is the concentration needed to halve the response being measured. The term IC90 denotes the concentration at which the effect reaches the 90% level.

Molecules are shown by their SMILES. Calls of active or inactive are those of the source.

Take `O=C1CS/C(=N/N=C\c2cccc3ccccc23)N1Cc1ccccc1`: in data set [1], the CC50 at 120 h was at least 320 µM. Moreover, the inhibition result in the data set with Toxoplasma gondii [2] was “Active”. In the data set with Toxoplasma gondii [3], the IC50 amounted to 38 µM and the concentration for an effect of 90% (IC90) was found to be 79 µM. Also, the selectivity ratio in data set [4] came to 15. Besides, in the data set with Toxoplasma gondii [5], the inhibition result was “Active”.

On to `C/C(=N/N=C1/SCC(=O)N1Cc1ccccc1)c1cccs1`, for which the CC50 at 120 h in data set [1] is at least 320 µM. Further, the inhibition result in the data set on Toxoplasma gondii [6], in the data set with Toxoplasma gondii [2] and in the data set on Toxoplasma gondii [5] was “Active” throughout. For the same compound, the IC50 in the data set on Toxoplasma gondii [3] is 37 µM. Further, the IC90 in the data set on Toxoplasma gondii [3] turned out to be 84 µM. Also, the selectivity ratio in data set [4] was found to be 15.

Consider `O=C1CSC(NN=C2CCCC2)=N1`, for which the CC50 at 120 h in data set [1] was at least 320 µM. In addition, the inhibition entry with Toxoplasma gondii [6], in the data set with Toxoplasma gondii [2] and in the data set on Toxoplasma gondii [5] was “Active” in each case. Also, the IC50 in the data set on Toxoplasma gondii [3] came to 27 µM. Besides, the IC90 in the data set with Toxoplasma gondii [3] was 175 µM. Further, the selectivity ratio in data set [4] was 21.

Consider `CC1CCC/C1=N/N=C1\NC(=O)CS1` (centres undefined), for which, in data set [1], the CC50 at 120 h worked out at 35 µM. Also, the inhibition result in the data set on Toxoplasma gondii [6], in the data set with Toxoplasma gondii [2] and in the data set with Toxoplasma gondii [5] was “Active” in each case. Further, in the data set with Toxoplasma gondii [3], the IC50 was determined as 0.9 µM. In the data set on Toxoplasma gondii [3], the IC90 was found to be 2 µM. In addition, the selectivity ratio in data set [4] is 39.

On to `CCCC/C(CC)=N\N=C1\SCC(=O)N1Cc1ccccc1`, for which, in data set [1], the CC50 at 120 h was at least 320 µM. The inhibition entry with Toxoplasma gondii [6], in the data set with Toxoplasma gondii [2] and in the data set with Toxoplasma gondii [5] was “Active” in each case. Moreover, the IC50 with Toxoplasma gondii [3] worked out at 15 µM. The IC90 in the data set on Toxoplasma gondii [3] was 121 µM. The selectivity ratio in data set [4] was found to be 37.

As to `C/C(CC(C)C)=N/N=C1\NC(=O)CS1`, in data set [1], the CC50 at 120 h is 290 µM. Further, the inhibition result in the data set on Toxoplasma gondii [6], in the data set with Toxoplasma gondii [2] and in the data set with Toxoplasma gondii [5] was “Active” throughout. Besides, in the data set on Toxoplasma gondii [3], the IC50 stood at 23 µM. Besides, the IC90 in the data set on Toxoplasma gondii [3] worked out at 126 µM. For the same compound, the selectivity ratio in data set [4] came out at 13.

On to `C/C(=N/N=C1/SCC(=O)N1Cc1ccccc1)c1ccncc1`, for which the CC50 at 120 h in data set [1] stood at 183 µM. Moreover, the inhibition result with Toxoplasma gondii [6], with Toxoplasma gondii [2] and in the data set on Toxoplasma gondii [5] was “Active” in each case. Also, the IC50 with Toxoplasma gondii [3] is 36 µM. The IC90 in the data set with Toxoplasma gondii [3] is 103 µM. Moreover, in data set [4], the selectivity ratio is 5.

As for `CC1CCC/C(=N/N=C2\NC(=O)CS2)C1` (centres undefined), in data set [1], the CC50 at 120 h came to 202 µM. In addition, in the data set on Toxoplasma gondii [6], the inhibition result is “Active”. Besides, in the data set with Toxoplasma gondii [3], the IC50 amounted to 36 µM and the IC90 was 310 µM. Besides, the selectivity ratio in data set [4] worked out at 6.

As for `C/C(=N/N=C1\NC(=O)CS1)c1ccccn1`, in data set [1], the CC50 at 120 h stood at 16 µM. Also, the inhibition result with Toxoplasma gondii [6] is “Active”. In the data set with Toxoplasma gondii [3], the IC50 was 2.9 µM and the IC90 came to 7 µM. Further, the selectivity ratio in data set [4] worked out at 6.

On to `CCCCC/C(C)=N\N=C1\SCC(=O)N1Cc1ccccc1`, for which the CC50 at 120 h in data set [1] came out at 88 µM. Also, in the data set with Toxoplasma gondii [6], the inhibition entry was “Active”. Moreover, in the data set on Toxoplasma gondii [3], the IC50 stood at 19 µM and the IC90 worked out at 120 µM. For the same compound, in data set [4], the selectivity ratio came to 5.

Take `CC(C)(C)C1CCCC/C1=N/N=C1\NC(=O)CS1` (centres undefined): the CC50 at 120 h in data set [1] was at least 320 µM. Besides, the inhibition result in the data set on Toxoplasma gondii [6] was “Active”. In the data set with Toxoplasma gondii [3], the concentration for half-maximal inhibition (IC50) came out at 218 µM and the IC90 turned out to be 693 µM. Further, the selectivity ratio in data set [4] was found to be 3.

`O=C1CS/C(=N/N=C2CCCCCCC2)N1Cc1ccccc1`: in data set [1], the CC50 at 120 h turned out to be 205 µM. In addition, the inhibition entry in the data set on Toxoplasma gondii [6] is “Active”. In the data set on Toxoplasma gondii [3], the IC50 was found to be 43 µM and the IC90 is 508 µM. Moreover, the selectivity ratio in data set [4] came to 5.

Consider `CC(C)=C/C(C)=N\N=C1\SCC(=O)N1Cc1ccccc1`, for which, in data set [1], the CC50 at 120 h amounted to 67 µM. In the data set with Toxoplasma gondii [6], the inhibition result was “Active”. Besides, in the data set on Toxoplasma gondii [3], the IC50 stood at 23 µM and the 90% effect concentration (IC90) stood at 186 µM. Moreover, the selectivity ratio in data set [4] came out at 3.

Consider `CC/C(C)=N\N=C1\SCC(=O)N1Cc1ccccc1`, for which the CC50 at 120 h in data set [1] was at least 320 µM. Moreover, the inhibition entry in the data set with Toxoplasma gondii [6] is “Active”. Also, in the data set with Toxoplasma gondii [3], the IC50 is 99 µM and the IC90 worked out at 392 µM. In data set [4], the selectivity ratio is 6.

Consider `CCC(CC)=N/N=C1/SCC(=O)N1Cc1ccccc1`, for which the CC50 at 120 h in data set [1] was at least 320 µM. The inhibition result in the data set with Toxoplasma gondii [6] was “Active”. Moreover, in the data set on Toxoplasma gondii [3], the IC50 was found to be 36 µM and the IC90 is 243 µM. Moreover, the selectivity ratio in data set [4] stood at 16.

As for `O=C1CSC(NN=C2CCCCCC2)=N1`, the CC50 at 120 h in data set [1] was at least 320 µM. Further, in the data set on Toxoplasma gondii [6], the inhibition result is “Active”. In the data set with Toxoplasma gondii [3], the IC50 was 111 µM and the IC90 was found to be 387 µM. Also, the selectivity ratio in data set [4] worked out at 5.

For `CCC(CC)=N/N=C1\NC(=O)CS1`, the CC50 at 120 h in data set [1] was at least 320 µM. Further, the inhibition result in the data set with Toxoplasma gondii [6] is “Active”. In the data set with Toxoplasma gondii [3], the IC50 came out at 126 µM and the IC90 was found to be 580 µM. The selectivity ratio in data set [4] is 4.

Regarding `COc1cc(Cc2cnc(N)nc2N)cc(OC)c1OC` [TRIMETHOPRIM], in data set [1], the CC50 at 120 h was at least 320 µM. Moreover, the inhibition result with Toxoplasma gondii [6] is “Active”. Further, in the data set with Toxoplasma gondii [3], the concentration for half-maximal inhibition (IC50) was 13 µM and the IC90 was 73 µM. In data set [4], the selectivity ratio turned out to be 43.

Regarding `O=C1CS/C(=N/N=C\c2cccnc2)N1`, the CC50 at 120 h in data set [1] is at least 320 µM. Besides, the inhibition entry with Toxoplasma gondii [6] is “Active”. In the data set on Toxoplasma gondii [3], the IC50 amounted to 52 µM and the IC90 came out at 268 µM. Further, the selectivity ratio in data set [4] was 11.

Take `C/C(=N/N=C1\NC(=O)CS1)c1cc2ccccc2oc1=O`: in data set [1], the CC50 at 120 h was at least 320 µM. The inhibition result in the data set on Toxoplasma gondii [2] was “Active”. For the same compound, in the data set with Toxoplasma gondii [3], the concentration for half-maximal inhibition (IC50) is 8 µM and the IC90 was found to be 49 µM. Moreover, the selectivity ratio in data set [4] came out at 70. The inhibition entry in the data set on Toxoplasma gondii [5] is “Active”.

In the case of `C/C(=N/N=C1/SCC(=O)N1Cc1ccccc1)c1ccccc1`, in data set [1], the CC50 at 120 h is at least 320 µM. Also, the inhibition entry in the data set on Toxoplasma gondii [6] is “Active”. Further, in the data set with Toxoplasma gondii [3], the IC50 was 61 µM and the IC90 was determined as 294 µM. In addition, the selectivity ratio in data set [4] turned out to be 9.

Take `C/C(=N/N=C1/SCC(=O)N1Cc1ccccc1)c1ccco1`: in data set [1], the CC50 at 120 h was at least 320 µM. In the data set with Toxoplasma gondii [6], the inhibition entry is “Active”. In addition, in the data set on Toxoplasma gondii [3], the IC50 came to 76 µM and the IC90 was found to be 212 µM. The selectivity ratio in data set [4] is 7.

For `CC1CCCC/C1=N/N=C1\NC(=O)CS1` (centres undefined), the CC50 at 120 h in data set [1] is at least 320 µM. Moreover, the inhibition entry in the data set with Toxoplasma gondii [6] is “Active”. Also, in the data set on Toxoplasma gondii [3], the IC50 worked out at 247 µM and the IC90 was 785 µM. Also, the selectivity ratio in data set [4] is 2.

Consider `O=C1CS/C(=N/N=C\c2c[nH]c3ccccc23)N1Cc1ccccc1`, for which, in data set [1], the CC50 at 120 h is 102 µM. Moreover, the inhibition result in the data set with Toxoplasma gondii [6] was “Active”. For the same compound, in the data set with Toxoplasma gondii [3], the IC50 was 52 µM and the 90% effect concentration (IC90) was 177 µM. Besides, the selectivity ratio in data set [4] was found to be 2.

Regarding `O=C1CS/C(=N/N=C2CCCC2)N1Cc1ccccc1`, the CC50 at 120 h in data set [1] is at least 320 µM. Also, the inhibition result with Toxoplasma gondii [6] is “Active”. Further, in the data set on Toxoplasma gondii [3], the IC50 amounted to 105 µM and the concentration for an effect of 90% (IC90) came to 330 µM. Moreover, in data set [4], the selectivity ratio turned out to be 5.

As to `C=CCC/C(C)=N\N=C1/NC(=O)CS1`, the CC50 at 120 h in data set [1] was at least 320 µM. Besides, the inhibition entry with Toxoplasma gondii [6] was “Active”. In the data set on Toxoplasma gondii [3], the IC50 was found to be 195 µM and the IC90 amounted to 2220 µM. For the same compound, the selectivity ratio in data set [4] is 3.
